Experimental data from the NIST ThermoML archive (doi:10.1021/je500395f).
Numbers after ± are expanded uncertainties.

Settings: Fluid (supercritical or subcritical phases), Coaxial cylinder method

CCC [propane]
Settings	thermal conductivity [W/m/K]
373.2 K, 4574 kPa	0.0745 ± 0.0029
373.2 K, 4590 kPa	0.0724 ± 0.0028
373.2 K, 4605 kPa	0.07168 ± 0.0028
373.2 K, 4610 kPa	0.07119 ± 0.0027
373.2 K, 4640 kPa	0.06975 ± 0.0027
373.2 K, 4660 kPa	0.06887 ± 0.0027
373.2 K, 4680 kPa	0.06797 ± 0.0026
373.2 K, 4740 kPa	0.06707 ± 0.0026
373.2 K, 4900 kPa	0.06613 ± 0.0026
373.2 K, 5100 kPa	0.06615 ± 0.0026
373.2 K, 5540 kPa	0.06698 ± 0.0026
373.2 K, 6300 kPa	0.06878 ± 0.0027
373.2 K, 6700 kPa	0.06932 ± 0.0027
373.2 K, 7400 kPa	0.07086 ± 0.0027
373.2 K, 7780 kPa	0.07152 ± 0.0027
373.2 K, 8900 kPa	0.0735 ± 0.0028
373.2 K, 10500 kPa	0.0764 ± 0.0029
373.2 K, 11900 kPa	0.07818 ± 0.003
374.28 K, 2900 kPa	0.03164 ± 0.0015
374.28 K, 3087 kPa	0.03271 ± 0.0015
374.28 K, 3424 kPa	0.03453 ± 0.0016
374.28 K, 3945 kPa	0.03887 ± 0.0017
374.28 K, 3975 kPa	0.03918 ± 0.0017
374.28 K, 4080 kPa	0.0412 ± 0.0018
374.28 K, 4200 kPa	0.04376 ± 0.0019
374.28 K, 4280 kPa	0.04558 ± 0.0019
374.28 K, 4320 kPa	0.04719 ± 0.002
374.28 K, 4380 kPa	0.04961 ± 0.0021
374.28 K, 4425 kPa	0.05238 ± 0.0022
374.28 K, 4440 kPa	0.05378 ± 0.0022
374.28 K, 4450 kPa	0.05483 ± 0.0023
374.28 K, 4460 kPa	0.05626 ± 0.0023
374.28 K, 4475 kPa	0.05823 ± 0.0024
374.28 K, 4485 kPa	0.0596 ± 0.0025
374.28 K, 4510 kPa	0.06324 ± 0.0026
374.28 K, 4515 kPa	0.06424 ± 0.0027
374.28 K, 4518 kPa	0.06502 ± 0.0027
374.28 K, 4520 kPa	0.06551 ± 0.0027
374.28 K, 4535 kPa	0.06874 ± 0.0027
374.28 K, 4545 kPa	0.07123 ± 0.0028
374.28 K, 4550 kPa	0.07267 ± 0.0028
374.28 K, 4560 kPa	0.07525 ± 0.0029
374.28 K, 4565 kPa	0.07664 ± 0.0029
374.28 K, 4570 kPa	0.07786 ± 0.003
374.28 K, 4575 kPa	0.07875 ± 0.003
374.28 K, 4580 kPa	0.07954 ± 0.003
374.28 K, 4585 kPa	0.08016 ± 0.003
374.28 K, 4590 kPa	0.08076 ± 0.0031
374.28 K, 4595 kPa	0.08112 ± 0.0031
374.28 K, 4600 kPa	0.08148 ± 0.0031
374.28 K, 4605 kPa	0.0816 ± 0.0031
374.28 K, 4610 kPa	0.08117 ± 0.0031
374.28 K, 4615 kPa	0.08036 ± 0.003
374.28 K, 4620 kPa	0.07961 ± 0.003
374.28 K, 4625 kPa	0.07854 ± 0.003
374.28 K, 4630 kPa	0.07755 ± 0.0029
374.28 K, 4640 kPa	0.07599 ± 0.0029
374.28 K, 4650 kPa	0.07477 ± 0.0029
374.28 K, 4670 kPa	0.07334 ± 0.0028
374.28 K, 4685 kPa	0.0724 ± 0.0028
374.28 K, 4710 kPa	0.07096 ± 0.0027
374.28 K, 4720 kPa	0.07026 ± 0.0027
374.28 K, 4740 kPa	0.06979 ± 0.0027
374.28 K, 4760 kPa	0.06909 ± 0.0027
374.28 K, 4780 kPa	0.06868 ± 0.0027
374.28 K, 4820 kPa	0.06778 ± 0.0026
374.28 K, 4900 kPa	0.06693 ± 0.0026
374.28 K, 5000 kPa	0.06603 ± 0.0026
374.28 K, 5200 kPa	0.06584 ± 0.0026
374.28 K, 5500 kPa	0.06645 ± 0.0026
374.28 K, 5798 kPa	0.06707 ± 0.0026
374.28 K, 6323 kPa	0.06829 ± 0.0027
374.28 K, 6760 kPa	0.06867 ± 0.0027
375.1 K, 3780 kPa	0.03695 ± 0.0017
375.1 K, 3790 kPa	0.03732 ± 0.0017
375.1 K, 3794 kPa	0.03755 ± 0.0017
375.1 K, 4210 kPa	0.04276 ± 0.0018
375.1 K, 4300 kPa	0.04526 ± 0.0019
375.1 K, 4315 kPa	0.04587 ± 0.0019
375.1 K, 4350 kPa	0.04739 ± 0.002
375.1 K, 4400 kPa	0.04912 ± 0.002
375.1 K, 4450 kPa	0.05149 ± 0.0021
375.1 K, 4510 kPa	0.05552 ± 0.0023
375.1 K, 4520 kPa	0.05654 ± 0.0023
375.1 K, 4525 kPa	0.0572 ± 0.0023
375.1 K, 4535 kPa	0.05845 ± 0.0024
375.1 K, 4545 kPa	0.05974 ± 0.0024
375.1 K, 4550 kPa	0.06052 ± 0.0025
375.1 K, 4555 kPa	0.06115 ± 0.0025
375.1 K, 4560 kPa	0.06195 ± 0.0025
375.1 K, 4565 kPa	0.06257 ± 0.0026
375.1 K, 4570 kPa	0.06325 ± 0.0026
375.1 K, 4575 kPa	0.06422 ± 0.0026
375.1 K, 4580 kPa	0.06509 ± 0.0026
375.1 K, 4585 kPa	0.06611 ± 0.0027
375.1 K, 4590 kPa	0.06706 ± 0.0027
375.1 K, 4595 kPa	0.06795 ± 0.0027
375.1 K, 4600 kPa	0.06877 ± 0.0027
375.1 K, 4605 kPa	0.06965 ± 0.0028
375.1 K, 4610 kPa	0.07049 ± 0.0028
375.1 K, 4620 kPa	0.07215 ± 0.0028
375.1 K, 4625 kPa	0.07291 ± 0.0028
375.1 K, 4630 kPa	0.07371 ± 0.0029
375.1 K, 4635 kPa	0.07453 ± 0.0029
375.1 K, 4640 kPa	0.07507 ± 0.0029
375.1 K, 4645 kPa	0.07542 ± 0.0029
375.1 K, 4650 kPa	0.07583 ± 0.0029
375.1 K, 4655 kPa	0.07611 ± 0.0029
375.1 K, 4660 kPa	0.07639 ± 0.0029
375.1 K, 4665 kPa	0.07653 ± 0.0029
375.1 K, 4670 kPa	0.07625 ± 0.0029
375.1 K, 4675 kPa	0.07597 ± 0.0029
375.1 K, 4680 kPa	0.07569 ± 0.0029
375.1 K, 4685 kPa	0.07544 ± 0.0029
375.1 K, 4695 kPa	0.07466 ± 0.0029
375.1 K, 4700 kPa	0.07412 ± 0.0028
375.1 K, 4710 kPa	0.07346 ± 0.0028
375.1 K, 4720 kPa	0.07261 ± 0.0028
375.1 K, 4740 kPa	0.07111 ± 0.0027
375.1 K, 4750 kPa	0.07062 ± 0.0027
375.1 K, 4770 kPa	0.06965 ± 0.0027
375.1 K, 4790 kPa	0.06852 ± 0.0027
375.1 K, 4800 kPa	0.06807 ± 0.0026
375.1 K, 4850 kPa	0.06676 ± 0.0026
375.1 K, 4890 kPa	0.06599 ± 0.0026
375.1 K, 4920 kPa	0.06554 ± 0.0026
